Measurements reported in US10081662B2, “Modified relaxin B chain peptides” (The Florey Institute of Neuroscience and Mental Health, priority 2014, dated 2018).
Peptide text beside a SMILES is read from it.

Experiments:
RXFP2 = molecular target: T1, RXFP2 (Homo sapiens, UniProt Q8WXD0); assay: cAMP reporter gene assay in HEK-293T cells transfected with RXFP2; assay type: cell-based; details: RXFP1- vs RXFP2-expressing HEK-293T cells; FIG. 3
T1 construct: expressed in transfected cells; host or cells: HEK-293T
Procedure: The ability of the relaxin-2 B chain peptide derivatives generated in Example 1 to stimulate cAMP response was also evaluated, using a cAMP reporter gene assay as described previously (Scott et al., 2006, J Biol Chem. 281, 34942-34954). HEK-293T cells co-transfected with either RXFP1 or RXFP2, or 7BP cells, and a pCRE β-galactosidase reporter plasmid were plated in 96-well plates. After 24 hours, the co-transfected cells were incubated with increasing concentrations of peptides in parallel to 10 nM of H2 relaxin or INSL3 for RXFP1- or RXFP2-transfected cells respectively. The amount of cAMP-driven β-galactosidase expression in each well was assessed with a colorimetric assay measuring absorbance at 570 nm on a microplate spectrophotometer. Ligand-induced cAMP stimulation was expressed as a percentage of maximal response of H2 relaxin or INSL3 for RXFP1 and RXFP2 cells respectively. Each data point was measured in triplicate and each experiment conducted independently at least three separate times. Statistical differences in pEC50 values were analyzed using one-way ANOVA coupled to Newman Keul's multiple comparison test for multiple group comparisons in GraphPad Prism 6.

[1] = test system: mouse model of isoproterenol (ISO) induced cardiac fibrosis; assay: Mouse model of isoproterenol-induced cardiomyopathy (cardiac fibrosis); assay type: in vivo; details: 129SV mice, 14 days, s.c. minipump; relative to isoproterenol treatment
Excerpt: (§1) Seven to eight-week old male 129SV mice (which are sensitive to tissue injury and fibrosis) and age-matched female Balb/c mice (which are sensitive to changes in airway hyperresponsiveness) were used for the induction of isoproterenol-induced cardiomyopathy and ovalbumin-induced chronic allergic airways disease, respectively. 16 five week-old male C57BL/6 mice were used in the induction of prostate cancer growth. All animals were obtained from Monash Animal Services (Monash University, Clayton, Victoria, Australia) and housed under standard conditions (maintained on an 12 h light-12 h dark lighting cycle with free access to food and water) in the Department of Pharmacology Animal Room at Monash University.
The mid zone of the male mouse heart and largest lung lobe from female Balb/c mice were fixed in 10% neutral buffered formalin for 24-48 h before being processed and embedded routinely in paraffin wax. Representative sections of tissue, 3-5 um each, were taken and stained with either picrosirius red (Samuel et al. 2011 Lab Invest 91, 675-690) for the detection of interstitial collagen or Masson's trichrome (Royce et al, 2009, Endocrinology 150, 2692-2699) for the detection of subepithelial basement membrane collagen deposition).
Changes in picrosirius-red stained interstitial collagen or epithelial thickness and subepithelial collagen (fibrosis) around the airway lumen from Masson's trichrome-stained sections; which were all captured (at ×20 magnification) using a SPOT digital camera (Q Imaging, Burnaby, BC, Canada) and analysed with Image J 1.3 software (National Institutes of Health, Bethesda, Md.). Four to five fields per mid zone of the heart or 4-5 airways (of 150-350 μm in diameter) per mouse were assessed. Epithelial thickness and subepithelial collagen regions were traced with a digital pen and the thickness of each region calculated by the imaging software. Results were expressed as mean thickness ([…]) of the 4-5 airways sampled.
The apical region of the heart or second largest lung lobe from each mouse was treated as described previously (Samuel C S, et at., 2003, FASEB J 17, 121-123; Royce et at. 2009, Endocrinology 150, 2692-2699) for the determination of hydroxyproline content. Hydroxyproline values were estimated based on a standard curve constructed with serial dilutions of a 0.1 mg/mL stock of trans-4-hydroxyproline-L-proline (Sigma-Aldrich). Hydroxyproline values were then converted to collagen content as detailed previously (Samuel CS, et al. 2004. Endocrinology 145, 4125-4133) and, in turn, divided by the dry weight of each corresponding left ventricular or lung tissue assessed to yield collagen concentration (a measure of fibrosis). […]

[2] = test system: RM1 mouse prostate tumour cells; assay: Prostate tumour growth after injection of RM1 cells into prostates of C57BL/6 mice; assay type: in vivo; details: day 10 after RM1 cells, s.c. mini-pump from day 2, H2 relaxin 0.15, B7-33 C11.23S 0.075 mg/kg/day, vs untreated
Excerpt: as §1
H2 relaxin can induce prostate and other tumour growth. To measure the effect of B7-33 C11.23S on tumour growth, 16 five week-old male C57BL/6 mice (obtained from Monash Animal Services) were injected with 5000 RM1 (mouse prostate tumor) cells into their prostates to induce tumor growth. One sub-group of mice n=5) was left untreated until day 10 post-RM1 cell administration. […]

T1 sequence (Q8WXD0 whole entry): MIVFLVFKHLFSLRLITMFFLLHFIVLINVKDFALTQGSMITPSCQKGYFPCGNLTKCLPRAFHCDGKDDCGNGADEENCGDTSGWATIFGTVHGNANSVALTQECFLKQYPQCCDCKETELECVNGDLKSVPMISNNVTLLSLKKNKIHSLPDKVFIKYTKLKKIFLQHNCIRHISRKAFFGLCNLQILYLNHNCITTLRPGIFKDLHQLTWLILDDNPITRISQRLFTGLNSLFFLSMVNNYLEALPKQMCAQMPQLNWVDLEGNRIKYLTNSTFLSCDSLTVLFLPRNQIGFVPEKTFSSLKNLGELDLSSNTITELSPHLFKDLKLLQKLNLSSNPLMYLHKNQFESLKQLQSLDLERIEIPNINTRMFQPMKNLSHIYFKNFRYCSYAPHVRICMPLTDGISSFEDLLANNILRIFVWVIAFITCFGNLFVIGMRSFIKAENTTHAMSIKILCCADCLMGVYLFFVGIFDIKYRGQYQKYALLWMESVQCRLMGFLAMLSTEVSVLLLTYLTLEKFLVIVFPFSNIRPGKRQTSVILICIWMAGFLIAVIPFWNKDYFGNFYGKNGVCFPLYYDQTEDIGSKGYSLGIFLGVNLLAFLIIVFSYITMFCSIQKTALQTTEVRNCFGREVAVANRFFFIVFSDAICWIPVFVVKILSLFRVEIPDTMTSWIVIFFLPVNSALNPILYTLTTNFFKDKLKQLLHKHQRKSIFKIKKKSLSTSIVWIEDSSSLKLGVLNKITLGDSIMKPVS

**Q.** Which results are given for `CC[C@H](C)[C@H](NC(=O)[C@H](C)NC(=O)[C@@H](NC(=O)[C@H](CCC(N)=O)NC(=O)[C@H](C)NC(=O)[C@H](CCCNC(=N)N)NC(=O)[C@@H](NC(=O)[C@H](CC(C)C)NC(=O)[C@H](CCC(=O)O)NC(=O)[C@H](CCCNC(=N)N)NC(=O)CNC(=O)[C@H](CO)NC(=O)[C@H](CC(C)C)NC(=O)[C@H](CCCCN)NC(=O)[C@@H](NC(=O)[C@@H](N)C(C)C)[C@@H](C)CC)C(C)C)[C@@H](C)CC)C(=O)N[C@@H](CO)C(=O)NCC(=O)N[C@@H](CCSC)C(=O)N[C@@H](CO)C(=O)N[C@H](C(=O)N[C@@H](Cc1c[nH]c2ccccc12)C(=O)N[C@@H](CO)C(=O)N[C@@H](CCCCN)C(=O)N[C@@H](CCCNC(=N)N)C(=O)N[C@@H](CO)C(=O)N[C@@H](CC(C)C)C(N)=O)[C@@H](C)O` [B7-33 C11.23S] (H-VIKLSGRELVRAQIAISGMSTWSKRSL-NH2)?
**A.** Selectivity of cAMP stimulation, RXFP1 over RXFP2 (RXFP2): selective at RXFP1 over RXFP2; Percentage of interstitial collagen in the left ventricle (picrosirius red) [1]: significantly reduced; Total left ventricular collagen concentration (hydroxyproline analysis) [1]: significantly reduced; Prostate tumour size [2]: did not result in changes in tumour size relative to untreated
